From paper PMC6532841 (PLoS Genetics, 2019) come the findings set out here.

Common to all, as to assay: cAMP inhibition assay (ALPHAScreen), transfected CHO-K1
What all share (type): cell-based
On the technique in general: Bead proximity is the source of the signal in Alpha formats.

One assay has as its target T1, mouse HCA1 (Mus musculus, UniProt Q8C131).
T1 construct: gene Hcar1; full-length, N-terminal HA and C-terminal FLAG tag, CHO-K1
T1 sequence (Q8C131 1-343): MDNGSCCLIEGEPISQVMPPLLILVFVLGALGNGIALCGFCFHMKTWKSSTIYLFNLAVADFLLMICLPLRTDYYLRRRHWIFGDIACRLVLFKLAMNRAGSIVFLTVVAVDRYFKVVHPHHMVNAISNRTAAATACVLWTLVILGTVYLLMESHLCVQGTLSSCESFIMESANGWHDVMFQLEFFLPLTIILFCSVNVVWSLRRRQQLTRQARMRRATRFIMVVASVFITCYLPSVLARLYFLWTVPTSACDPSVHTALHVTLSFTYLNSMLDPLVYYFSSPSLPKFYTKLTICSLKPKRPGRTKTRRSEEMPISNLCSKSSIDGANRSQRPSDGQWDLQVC
From the text:
cAMP inhibition assay (ALPHAScreen), transfected CHO-K1 on mouse HCA1

The next assay has as its target T2, gorilla HCA1 (Gorilla gorilla, UniProt A0A2I2YNR0).
T2 construct: gene HCAR1; full-length, HA/FLAG tags, CHO-K1
The text has this: cAMP inhibition assay (ALPHAScreen), transfected CHO-K1 on gorilla HCA1

Another assay deals with T3, chimpanzee HCA1 (Pan troglodytes, UniProt A0A2I3T0E0).
T3 construct: gene HCAR1; full-length, HA/FLAG tags, CHO-K1
The text has this: cAMP inhibition assay (ALPHAScreen), transfected CHO-K1 on chimpanzee HCA1

For the next assay, the target named is T4, human HCA1 (Homo sapiens, UniProt Q9BXC0).
T4 construct: gene HCAR1; full-length, N-terminal HA and C-terminal FLAG tag, pcDps, transient in CHO-K1
The settings on record: read-out: HCA2 / Basal cAMP (% of mock-transfected). From the text: cAMP inhibition assay (ALPHAScreen), transfected CHO-K1 on human HCA1

Another assay has as its target T5, orangutan HCA2 (Pongo abelii, UniProt A0A8I5YUU0).
T5 construct: gene HCAR2; full-length, HA/FLAG tags, CHO-K1
From the text: cAMP inhibition assay (ALPHAScreen), transfected CHO-K1 on orangutan HCA2

The next assay addresses T6, human HCA2 (Homo sapiens, UniProt Q8TDS4).
T6 construct: gene HCAR2; full-length, N-terminal HA and C-terminal FLAG tag, pcDps, transient in CHO-K1
The settings on record: read-out: HCA3 / Basal cAMP (% of mock-transfected). The text has this:
cAMP inhibition assay (ALPHAScreen), transfected CHO-K1 on human HCA2

The target in the next assay is T7, mouse HCA2 (Mus musculus, UniProt Q9EP66).
T7 construct: gene Hcar2; full-length, N-terminal HA and C-terminal FLAG tag, CHO-K1
The text has this: cAMP inhibition assay (ALPHAScreen), transfected CHO-K1 on mouse HCA2

Another assay addresses T8, chimpanzee HCA3 (Pan troglodytes, UniProt A0A2J8MD62).
T8 construct: gene HCAR3; full-length, HA/FLAG tags, CHO-K1
The note with it: agonist; 2 μM forskolin; HBSS. From the text: cAMP inhibition assay (ALPHAScreen), transfected CHO-K1 on chimpanzee HCA3

Another assay has as its target T9, human HCA3 (Homo sapiens, UniProt P49019).
T9 construct: gene HCAR3; full-length, N-terminal HA and C-terminal FLAG tag, pcDps, transient in CHO-K1
The settings on record: read-out: EC50 (μM) (95% CI). From the text: cAMP inhibition assay (ALPHAScreen), transfected CHO-K1 on human HCA3

The target in another assay is T10, orangutan HCA3 (Pongo pygmaeus, UniProt A0A4Y1JWR4).
T10 construct: gene HCAR3; full-length, HA/FLAG tags, CHO-K1
The note with it: read-out: EC50 (μM) (95% CI). The text has this:
cAMP inhibition assay (ALPHAScreen), transfected CHO-K1 on orangutan HCA3

The next assay addresses T11, siamang HCA3 (Symphalangus syndactylus, UniProt Z9POU2MJD9).
T11 construct: full-length, HA/FLAG tags, CHO-K1
The settings on record: read-out: EC50 (μM) (95% CI). From the text: cAMP inhibition assay (ALPHAScreen), transfected CHO-K1 on siamang HCA3

T7 sequence (Q9EP66 whole entry): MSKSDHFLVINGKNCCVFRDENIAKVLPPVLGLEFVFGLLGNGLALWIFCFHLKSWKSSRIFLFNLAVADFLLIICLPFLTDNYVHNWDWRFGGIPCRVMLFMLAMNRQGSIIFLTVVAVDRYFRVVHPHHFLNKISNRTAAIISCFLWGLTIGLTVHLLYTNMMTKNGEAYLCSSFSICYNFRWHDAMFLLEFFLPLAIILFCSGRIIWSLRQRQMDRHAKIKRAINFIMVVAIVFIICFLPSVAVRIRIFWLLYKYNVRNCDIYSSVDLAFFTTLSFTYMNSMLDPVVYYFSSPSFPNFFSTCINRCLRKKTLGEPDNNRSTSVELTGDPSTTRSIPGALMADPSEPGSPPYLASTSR
T9 sequence (P49019 whole entry): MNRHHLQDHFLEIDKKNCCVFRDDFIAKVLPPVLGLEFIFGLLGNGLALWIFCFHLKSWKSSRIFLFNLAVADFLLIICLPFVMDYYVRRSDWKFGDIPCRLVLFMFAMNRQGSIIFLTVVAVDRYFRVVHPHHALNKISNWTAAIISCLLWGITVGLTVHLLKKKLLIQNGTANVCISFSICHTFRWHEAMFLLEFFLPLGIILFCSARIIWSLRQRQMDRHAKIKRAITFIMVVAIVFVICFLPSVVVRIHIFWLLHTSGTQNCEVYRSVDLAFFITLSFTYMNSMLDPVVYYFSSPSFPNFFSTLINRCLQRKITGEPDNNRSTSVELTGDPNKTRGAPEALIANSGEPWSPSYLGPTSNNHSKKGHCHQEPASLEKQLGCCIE
T2 sequence (A0A2I2YNR0 1-346): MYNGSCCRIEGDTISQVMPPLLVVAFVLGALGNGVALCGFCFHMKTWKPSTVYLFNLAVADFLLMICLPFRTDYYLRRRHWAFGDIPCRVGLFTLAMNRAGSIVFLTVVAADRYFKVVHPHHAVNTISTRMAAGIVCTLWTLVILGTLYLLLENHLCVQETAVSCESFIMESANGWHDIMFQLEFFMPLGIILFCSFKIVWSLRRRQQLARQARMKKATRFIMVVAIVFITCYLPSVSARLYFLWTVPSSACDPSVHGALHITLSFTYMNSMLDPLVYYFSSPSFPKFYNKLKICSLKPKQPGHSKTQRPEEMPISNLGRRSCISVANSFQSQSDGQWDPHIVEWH
T4 sequence (Q9BXC0 whole entry): as the sequence (A0A2I2YNR0 1-346) above, with V23I, M131V, T141A, L148V counted along it
T10 sequence (A0A4Y1JWR4 1-363): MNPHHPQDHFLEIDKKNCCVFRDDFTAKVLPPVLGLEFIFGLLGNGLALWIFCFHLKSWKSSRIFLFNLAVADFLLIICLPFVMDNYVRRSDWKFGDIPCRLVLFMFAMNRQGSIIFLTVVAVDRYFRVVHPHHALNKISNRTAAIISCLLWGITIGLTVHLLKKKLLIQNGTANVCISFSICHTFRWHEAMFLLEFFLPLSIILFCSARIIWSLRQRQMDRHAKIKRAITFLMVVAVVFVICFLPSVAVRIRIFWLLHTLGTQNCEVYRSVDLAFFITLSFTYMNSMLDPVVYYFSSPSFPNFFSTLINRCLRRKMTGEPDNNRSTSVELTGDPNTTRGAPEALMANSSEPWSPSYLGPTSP
T5 sequence (A0A8I5YUU0 1-363): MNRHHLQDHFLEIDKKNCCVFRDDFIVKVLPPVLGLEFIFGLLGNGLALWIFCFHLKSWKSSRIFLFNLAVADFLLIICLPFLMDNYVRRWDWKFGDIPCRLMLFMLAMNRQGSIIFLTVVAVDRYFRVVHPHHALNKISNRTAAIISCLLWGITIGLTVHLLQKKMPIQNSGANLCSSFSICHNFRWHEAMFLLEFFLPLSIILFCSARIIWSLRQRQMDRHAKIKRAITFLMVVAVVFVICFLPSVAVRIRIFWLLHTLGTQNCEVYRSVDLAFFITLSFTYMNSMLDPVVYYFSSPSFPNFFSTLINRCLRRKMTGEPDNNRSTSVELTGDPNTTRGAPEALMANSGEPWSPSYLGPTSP
T6 sequence (Q8TDS4 whole entry): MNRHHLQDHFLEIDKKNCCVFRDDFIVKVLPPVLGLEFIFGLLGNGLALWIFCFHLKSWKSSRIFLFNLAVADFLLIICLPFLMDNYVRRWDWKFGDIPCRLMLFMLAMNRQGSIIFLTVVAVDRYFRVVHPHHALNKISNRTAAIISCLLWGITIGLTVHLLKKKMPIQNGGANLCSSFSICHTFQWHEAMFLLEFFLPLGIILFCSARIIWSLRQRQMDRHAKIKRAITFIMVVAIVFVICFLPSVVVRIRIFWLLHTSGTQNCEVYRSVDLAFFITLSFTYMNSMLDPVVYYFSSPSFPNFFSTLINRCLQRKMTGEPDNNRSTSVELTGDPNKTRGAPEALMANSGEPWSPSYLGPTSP
T3 sequence (A0A2I3T0E0 1-346): as the sequence (A0A2I2YNR0 1-346) above, with V23I, S249L counted along it

Consider `C[C@H](O)C(=O)O` [L-lactate], for which the EC50 on mouse HCA1 worked out at 2900 µM; on gorilla HCA1 it was 2300 µM; on chimpanzee HCA1, 4100 µM; at human HCA1, 2400 µM.

For `C[C@@H](O)CC(=O)O` [D-3HB], the EC50 at orangutan HCA2 stood at 680 µM; at human HCA2, 530 µM; at mouse HCA2, 1030 µM.

For the molecule `O=C(O)[C@H](O)Cc1ccccc1` [D-PLA], the “EC50 (μM) (95% CI)” value on chimpanzee HCA3 is recorded as 0.13 (0.08–0. 22) μM. The EC50 stood at 0.15 µM at human HCA3, 1.2 µM on orangutan HCA3 and 0.28 µM on siamang HCA3.
